In patent US12648942B2, “Method for treating acute ischemic stroke” (Lumosa Therapeutics Co., LTD, priority 2021, dated 2026):

Columns and labels:
[1] = test system: embolic middle cerebral artery occlusion (MCAO) rats; assay: Embolic middle cerebral artery occlusion (MCAO) model in Wistar rat (Examples 2, 7-9); assay type: in vivo; conditions: for Mean neurological severity score (NSS): 24 hours post-MCAO, scale 0-18; for blood flow compared to saline treated group: measured for 3 hours, p<0.0001 vs saline
Description: At Day 0, anesthetize the rats to collect blood from the femoral artery to prepare the homologous clot. Create a partial arteriotomy with a microscissors and then insert a sterile PE-50 tubing ([…]) along the artery. Arterial blood collected in this length of the PE-50 tubing commonly generates ˜10 indusial clots that are suitable for MCAO. Keep the clot in the tube for 2 hours at room temperature and subsequently retain for 22 hours at 4° C.
At Day 1, to prepare the embolus, cut the clot containing PE-50 tubing into 32 mm segment in length and connect the segment with a 3 ml saline filled syringe with 23G needle. Push the syringe to flush the clot out of the PE-50 tubing into saline filled Petri dish. Draw and flush the clot into and out of the PE-10 tubing (draw from clot's end to avoid folding and twisting of the clot), respectively, 10-15 times to wash out the majority of the entrapped red blood cells until the clot without further RBCs releasing. Connect the PE-10 tubing to the modified PE-50 catheter and shift the clot into PE-50 catheter. Then, the modified PE-50 catheter is connected to a 100 μl Hamilton microsyringe. The clot is now ready to be used.
At Day 1, anesthetize the rats. Bluntly dissect the carotid sheath along the common carotid artery (CCA) until the ECA (ipsilateral external carotid artery), PPA (pterygopalatine artery), and ICA (internal carotid artery) bifurcation is exposed. […] Prepare laser Doppler flow probe into the tube of head. Temporarily clamp the CCA, PPA, and ICA with clip and apply a 4-0 silk suture loosely around the trunk of the ECA near bifurcation. Release the clip slowly and further advance the catheter within the ICA to enter the intracranial segment of the ICA until resistance is felt. The total length of the catheter that has been advanced is −19-22 mm from the ECA arteriotomy site. Retract the catheter 1-2 mm and slowly inject the clot with 5-10 μl of saline at rate of 10 μl/min. The percentage of regional cerebral flow (rCBF) decrease into ˜20-30% after clot injection. Wait for 30 minutes to let the clot stable at the ICA. Retract the catheter until its tip reaches the ECA/ICA bifurcation. Re-apply a clip to temporarily clamp the CCA and the ICA and then withdraw the catheter from the arteriotomy. Tighten the 4-0 silk suture around the ECA trunk to ligate the arteriotomy. Remove the clip. Wait for another 30 minutes to make sure the animal is stable and there is no blooding issue. Close the incision and terminate the anesthesia.
Neurological deficits were assessed at 24 h after MCAO surgery. The neurological function was graded on a scale of 0-18, with 0 representing normal function and 18 representing maximum neurological deficits (see FIG. 2).
24 hours after the induction of MCAO, anesthetize the rat with 5% isoflurane and use normal saline to do the perfusion from heart (150 ml). Decapitate the rat and collect the brain. Rinse the collected dish and matrix with PBS before used. To tear out clot after taking photo. Slice the brain coronally into […] 2-mm slices with a brain matrix on ice (Cut the brain into 8 pieces). Incubate the brain slices in 2% 2,3,5-triphenyltetrazolium chloride (TTC) (Sigma-Aldrich) in 1×PBS for 20 min at room temperature (avoid light) and record the result by photo. Then, using ImageJ to determine the size and extent of the infarction.
The caudal sides of all the TTC sections were scanned using a digital camera, and the images were stored as JPEG. The non-ischemic and ischemic hemisphere infarct areas were measured using image J (Image J, Bethesda, MD) software. All eight infarct area measurements were calculated with a 2 mm distance between the slices. […]

[2] = test system: photochemically induced thrombosis of the middle cerebral artery in rats; assay: Photochemically induced thrombotic (PIT) stroke model in rats (Examples 3, 10); assay type: in vivo, rat; conditions: 24 hours after PIT surgery
Description: Under anesthesia, the left middle cerebral artery (MCA) was occluded by a thrombus generated at the site of photoirradiation. The left MCA was exposed via a transorbital approach. A vertical incision was made between the left orbital and the external auditory canal. The temporal muscle was reflected and a subtemporal craniotomy was performed without removing the zygomatic arch. A window of approximately 3 mm in diameter was opened at the base of the skull. The main trunk of the left MCA was visible through the window. Endothelial cells in the MCA were focally injured by a photochemical reaction between rose bengal and green illumination (X540 nm, 600,000 Lux). Rose bengal (20 mg/kg) was intravenously dose and then the MCA was exposed to green light for a period of 10 min. During surgery, animals were placed on a heating pad set at 38 C.
Twenty-four hours (±2 hrs.) after thromboembolism, and once daily for the next five days, neurologic deficits were scored according to a modified method described by Ederson et al. (Stroke, 1986, 17: 472-476). A total of “0” indicates no deficit whereas a maximal score of “15” indicates severe deficits.
Each brain was cut into six coronal blocks with a rat brain matrix (2 mm interval). Brains were post-fixed overnight in 4% paraformaldehyde at 3.1-6.2° C., stored in phosphate-buffered saline and sent out for histological processing. Each coronal block was embedded in paraffin. One coronal section from each block was taken and stained with hematoxylin and eosin (HE).
From the HE-stained sections, the infarct areas (mm^2) were manually marked using OsiriX version 8.0.2 (Pixmeo SARL, Bernex, Switzerland). The volume of ischemic infarction (mm^3) was calculated as the […] (six coronal sections per brain). Infarct volumes were calculated in cerebral cortex and basal ganglia. Total infarct volume was calculated by adding the infarct volumes of the basal ganglia and cerebral cortex.
Rats were treated with vehicle (saline), rtPA (10 mg/kg), DC009 (0.007 mg/kg, 15-minute IV infusion) after 1 hours of stroke onset, or DC009 (0.007 mg/kg, 15-minute IV infusion) after 3 hours of stroke onset. (n=10 per treatment group). At 24 hours after drug administration, rats were assessed with a neurological deficit scale (NDS).
24 hours after PIT surgery, rats were euthanized, and brains were processed for […].

[3] = DC009 0.007 mg/kg, 15-minute IV infusion, 1 hr post-PIT
[4] = DC009 0.007 mg/kg, 15-minute IV infusion, 3 hr post-PIT

In the case of `CC(NC(=O)C1CCCN1)C(=O)NC(CCCCN)C(=O)NCCCCC(NC(=O)C1Cc2cc(O)c(O)cc2C(C)(C)N1)C(=O)O` (stereo not drawn) [DC009, 3S-6,7-dihydroxy-1,1-dimethyl-1,2,3,4-tetrahydro-isoquinoline-3-acyl-Lys(Pro-Ala-Lys)], the “Mean neurological severity score (NSS)” value ([1]; DC009 0.005 mg/kg, 15-minute IV infusion 3 hours after stroke onset) was 7.13 ± 0.64, the “infarct size compared to saline and rtPA treated groups” value ([1]; DC009 0.025 mg/kg at 3 and 6 hours post MCAO surgery, 24 hours after stroke, TTC, FIG. 4) was “significant smaller infarct size” and the “restoring occluded blood flow” value ([1]; DC009 0.05 mg/kg, 15-minute IV infusion 1 hour after stroke onset, FIG. 3) was “good efficacy”. The “blood flow compared to saline treated group” value ([1]; DC009 0.05, 0.1, 0.2 and 0.4 mg/kg, 15-minute IV infusion 1 hour after stroke onset, FIG. 3) was “increased”, the “infarction volume, Basal ganglia” value [2, 3] was 63.7 ± 10.3 ** mm^3 and the “infarction volume, Cerebral cortex” value [2, 3] was 210.6 ± 26.4 mm^3. For the same compound, the “infarction volume, Basal ganglia” value [2, 4] was 94.8 ± 6.2 mm^3, the “infarction volume, Cerebral cortex” value [2, 4] was 227.7 ± 18.4 mm^3 and the “infarction volume, Total” value [2, 4] was 322.5 ± 23.0 mm^3.
In the case of “rtPA: Alteplase (Activase), a recombinant tissue-type plasminogen activator (rtPA) [reference compound]”, the “blood flow compared to saline treated group” value ([1]; rtPA 10 mg/kg (10% IV bolus, rest infused for 30 minutes) 1 hour after stroke onset, FIG. 3) was “increased”, the “Mean neurological severity score (NSS)” value ([1]; rtPA 10 mg/kg (10% IV bolus, rest infused for 30 minutes) 3 hours after stroke onset) was 6.38 ± 0.74 and the “infarct volumes (% hemisphere)” value ([1]; rtPA 10 mg/kg (10% IV bolus, rest infused for 30 minutes) 3 hours after stroke onset, 24 hours, TTC) was 43.23 ± 11.03 % hemisphere. The “infarction volume, Basal ganglia” value ([2]; rtPA 10 mg/kg, 1 hr post-PIT) was 80.7 ± 4.3 mm^3, the “infarction volume, Cerebral cortex” value ([2]; rtPA 10 mg/kg, 1 hr post-PIT) was 200.0 ± 18.1 mm^3 and the “infarction volume, Basal ganglia” value ([2]; rtPA 10 mg/kg, 3 hr post-PIT) was 87.0 ± 7.0 mm^3. The “infarction volume, Cerebral cortex” value ([2]; rtPA 10 mg/kg, 3 hr post-PIT) was 173.5 ± 19.4 ** mm^3 and the “infarction volume, Total” value ([2]; rtPA 10 mg/kg, 3 hr post-PIT) was 260.6 ± 23.9 ** mm^3.
